This passage reports EC50 results from patent publication US11618747B2, “LXR modulators with bicyclic core moiety” (OrsoBio, Inc., priority 2018, dated 2023).

Test [1] addresses T1, LXRβ ligand-binding domain (Homo sapiens, UniProt P55055, DUP175-175).
T1 construct: amino acids 156-461; NP009052; made in house; host or cells: E. coli
T1 sequence (P55055 with tags, fused parts or gaps DUP175-175 limits assumed): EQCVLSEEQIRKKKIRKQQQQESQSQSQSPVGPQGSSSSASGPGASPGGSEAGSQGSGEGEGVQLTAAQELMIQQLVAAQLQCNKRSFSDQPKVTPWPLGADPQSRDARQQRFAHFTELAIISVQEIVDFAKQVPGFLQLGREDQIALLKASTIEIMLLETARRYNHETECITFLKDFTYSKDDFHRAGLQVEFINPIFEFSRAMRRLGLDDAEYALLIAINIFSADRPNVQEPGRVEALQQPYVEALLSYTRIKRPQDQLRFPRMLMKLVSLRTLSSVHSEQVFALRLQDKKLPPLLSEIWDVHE
As to the kind of experiment: TR-FRETβ activity assay (NCoA3 coactivator peptide recruitment). In kind it is biochemical. To be noted: TR-FRET, 1 μM 24(S)-25-epoxycholesterol prestimulation; read-out: FRETβ (EC50 range). Put shortly: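 GST-tagged human LXRβ LBD (aa 156-461, E. coli) at 76 nM with 400 nM biotinylated NCoA3 peptide in Tris/HCl pH 6.8, 240 mM KCl, BSA, 0.002% Triton-X-100, plus 1 μM 24(S)-25-epoxycholesterol as prestimulating agonist. Compounds at 50 μM down to 0.002 μM, 1 h at 4 °C. Coactivator recruitment by TR-FRET (Tb cryptate/XL665, 615/665 nm), triplicates.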
Background: In TR-FRET formats the signal depends on donor and acceptor labels being close together.

The next test concerns the target T2, full length (FL) LXRα (Homo sapiens, UniProt Q13133).
T2 construct: the full length (FL) proteins of LXRα (amino acids 1-447); NP005684; expressed in transfected cells; host or cells: HEK293
T2 sequence (Q13133 1-447): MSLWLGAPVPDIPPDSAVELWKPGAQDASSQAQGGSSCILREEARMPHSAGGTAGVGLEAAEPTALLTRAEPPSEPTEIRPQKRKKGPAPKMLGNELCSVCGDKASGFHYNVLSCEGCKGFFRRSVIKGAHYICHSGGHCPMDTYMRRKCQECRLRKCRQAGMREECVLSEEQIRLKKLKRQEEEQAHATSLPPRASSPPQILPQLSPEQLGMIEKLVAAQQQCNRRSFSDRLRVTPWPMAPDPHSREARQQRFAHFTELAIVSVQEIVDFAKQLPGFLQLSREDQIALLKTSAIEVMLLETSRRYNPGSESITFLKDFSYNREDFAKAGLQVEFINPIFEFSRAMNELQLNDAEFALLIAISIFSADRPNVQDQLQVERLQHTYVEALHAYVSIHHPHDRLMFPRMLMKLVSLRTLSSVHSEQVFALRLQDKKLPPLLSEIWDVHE
Kind of test: LXR Gal4 reporter transient transfection assay (FL-M2H Gal4α). In kind it is cell-based. The following applies: HEK293 cells, full length LXRα; read-out: FL-M2H Gal4α (EC50 range). The essentials:
(§1)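 Cells (HEK293, 3.5×10^4/well) were plated 16-20 h, transfected with LXR, cofactor and reporter plasmids, treated with compound after 4 h, and lysed after a further 16 h. Interaction of LXR constructs with SRC1 or NCoR is detected by GAL4-driven Firefly luciferase.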

A further test has as its target T3, full length (FL) LXRβ (Homo sapiens, UniProt P55055, DUP175-175).
T3 construct: the full length (FL) proteins of LXRα (amino acids 1-447); NP005684; NP009052; expressed in transfected cells; host or cells: HEK293
T3 sequence (P55055 with tags, fused parts or gaps DUP175-175): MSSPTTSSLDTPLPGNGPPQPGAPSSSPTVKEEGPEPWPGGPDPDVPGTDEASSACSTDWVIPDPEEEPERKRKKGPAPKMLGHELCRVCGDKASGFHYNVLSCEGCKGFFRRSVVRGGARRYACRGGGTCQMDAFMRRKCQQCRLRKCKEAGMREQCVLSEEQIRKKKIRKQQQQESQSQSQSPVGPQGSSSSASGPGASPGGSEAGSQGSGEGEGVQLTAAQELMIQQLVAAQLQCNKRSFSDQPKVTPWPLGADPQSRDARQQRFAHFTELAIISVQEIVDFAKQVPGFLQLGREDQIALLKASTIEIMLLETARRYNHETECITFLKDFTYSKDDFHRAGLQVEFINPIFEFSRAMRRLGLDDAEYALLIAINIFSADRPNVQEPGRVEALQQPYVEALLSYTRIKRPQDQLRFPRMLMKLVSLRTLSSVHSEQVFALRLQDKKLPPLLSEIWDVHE
As to the kind of experiment: LXR Gal4 reporter transient transfection assay (FL-M2H Gal4β). In kind it is cell-based. The following applies: HEK293 cells, full length LXRβ; read-out: FL-M2H Gal4β (EC50 range). Put shortly:
as §1

Some results are limits rather than exact numbers.

A word on the EC50: it is the concentration giving half of the maximal effect. On to `Cn1cccc(-c2c(-c3cccc(-c4ccc(C(=O)O)cc4Cl)c3)n(S(=O)(=O)c3ccc(C(F)F)cc3)c3ccc(F)cc23)c1=O` [11/47], for which the EC50 (in test [1]; at full length (FL) LXRα; at full length (FL) LXRβ) was 100 to 1000 nM in each case.

Take `O=C(O)c1ccc(-c2cccc(-c3c(-c4cn[nH]c4C(F)(F)F)c4cc(F)ccc4n3S(=O)(=O)c3ccc(C(F)F)cc3)c2)c(Cl)c1` [11/25]: the results for the EC50 (in test [1]; at full length (FL) LXRα; at full length (FL) LXRβ) were 100 to 1000 nM, 100 to 1000 nM and less than 100 nM, respectively.

Take `COC(=O)C(C)(C)N(C)C(=O)C1CN(c2cccc(-c3c(-c4ccsc4C#N)c4cc(F)ccc4n3S(=O)(=O)c3ccc(C)cc3)c2)C1` [32/2]: the EC50 (in test [1]; at full length (FL) LXRα; on full length (FL) LXRβ) was 100 to 1000 nM each time.

In the case of `Cc1ccc(S(=O)(=O)n2c(-c3cccc(N4CC(C(=O)O)C4)c3)c(-c3ccsc3C#N)c3cc(C#N)ccc32)cc1` [3/45], the results for the EC50 (in test [1]; on full length (FL) LXRα; on full length (FL) LXRβ) were 1000 to 10000 nM, 100 to 1000 nM and 100 to 1000 nM, respectively.

On to `O=C(O)C1CC1c1cccc(-c2c(-c3c(Cl)cccc3Cl)c3cc(F)ccc3n2S(=O)(=O)c2ccc(C(F)F)cc2)c1` (stereo not drawn) [11/69], for which the EC50 (in test [1]; on full length (FL) LXRα; on full length (FL) LXRβ) was less than 100 nM in each case.

On to `COc1sccc1-c1c(-c2cccc(N3CC(C(=O)O)C3)c2)n(S(=O)(=O)c2ccc(C)cc2)c2ccc(F)cc12` [3/3], for which the EC50 in test [1] was 1000 to 10000 nM; on full length (FL) LXRα, 100 to 1000 nM; on full length (FL) LXRβ, 100 to 1000 nM.

As for `COCc1sccc1-c1c(-c2cccc(N3CC(C(=O)O)C3)c2)n(S(=O)(=O)c2ccc(C)cc2)c2ccc(F)cc12` [3/6], the EC50 in test [1] was in the range of 1000 to 10000 nM; at full length (FL) LXRα, 100 to 1000 nM; on full length (FL) LXRβ, 100 to 1000 nM.

As for `Cc1ccc(S(=O)(=O)n2c(-c3cccc(N4CC(C(=O)O)C4)c3)c(-c3ccsc3C#N)c3sccc32)cc1` [4/3], the values for the EC50 (in test [1]; on full length (FL) LXRα; at full length (FL) LXRβ) were 1000 to 10000 nM, less than 100 nM and less than 100 nM, respectively.

`Cc1ccc(S(=O)(=O)n2c(-c3cccc(C4CC4C(=O)O)c3)c(-c3ccsc3C#N)c3cccnc32)cc1` (stereo not drawn) [4/2]: the half-maximal effective concentration (EC50) is 1000 to 10000 nM in test [1], 100 to 1000 nM on full length (FL) LXRα and 100 to 1000 nM at full length (FL) LXRβ.

`Cc1ccc(S(=O)(=O)n2c(-c3cccc(-c4cc(F)c(C(=O)O)cc4Cl)c3)c(-c3ccsc3C#N)c3cc(F)ccc32)cc1` [12/2]: the EC50 is 100 to 1000 nM in test [1], less than 100 nM at full length (FL) LXRα and less than 100 nM on full length (FL) LXRβ.

For the molecule `Cc1ccc(S(=O)(=O)n2c(-c3cccc(N4CC(C(=O)O)C4)c3)c(-c3ccsc3C(F)(F)F)c3cc(F)ccc32)cc1` [3/30], the EC50 in test [1] is 100 to 1000 nM; at full length (FL) LXRα, less than 100 nM; on full length (FL) LXRβ it was less than 100 nM.

As to `N#Cc1sccc1-c1c(-c2cccc(N3CC(C(=O)O)C3)c2)n(S(=O)(=O)c2ccc3c(c2)CCC3)c2ccc(F)cc12` [3/12], the EC50 in test [1] is 100 to 1000 nM; at full length (FL) LXRα, less than 100 nM; on full length (FL) LXRβ, less than 100 nM.

As to `Cc1ccc(S(=O)(=O)n2c(-c3cccc(N4CC(C(=O)NC(C)(C)C(=O)O)C4)c3)c(-c3ccsc3C#N)c3cc(F)ccc32)cc1` [3/52], the EC50 (in test [1]; on full length (FL) LXRα; at full length (FL) LXRβ) was 100 to 1000 nM each time.
